Measurements reported in ChEMBL document CHEMBL1123932, “Berbanes: a new class of selective alpha 2-adrenoceptor antagonists” (J Med Chem, 1987).

Legend:
[1] = molecular target: T1, Adrenergic receptor alpha-1 (Rattus norvegicus, UniProt P15823+P23944+P43140); test: Antagonistic activity against postsynaptic Alpha-1 adrenergic receptor in isolated rat vas deferens using (-)-phenylephrine as agonist; assay type: functional, tissue-based
T1 sequence (P15823 whole entry): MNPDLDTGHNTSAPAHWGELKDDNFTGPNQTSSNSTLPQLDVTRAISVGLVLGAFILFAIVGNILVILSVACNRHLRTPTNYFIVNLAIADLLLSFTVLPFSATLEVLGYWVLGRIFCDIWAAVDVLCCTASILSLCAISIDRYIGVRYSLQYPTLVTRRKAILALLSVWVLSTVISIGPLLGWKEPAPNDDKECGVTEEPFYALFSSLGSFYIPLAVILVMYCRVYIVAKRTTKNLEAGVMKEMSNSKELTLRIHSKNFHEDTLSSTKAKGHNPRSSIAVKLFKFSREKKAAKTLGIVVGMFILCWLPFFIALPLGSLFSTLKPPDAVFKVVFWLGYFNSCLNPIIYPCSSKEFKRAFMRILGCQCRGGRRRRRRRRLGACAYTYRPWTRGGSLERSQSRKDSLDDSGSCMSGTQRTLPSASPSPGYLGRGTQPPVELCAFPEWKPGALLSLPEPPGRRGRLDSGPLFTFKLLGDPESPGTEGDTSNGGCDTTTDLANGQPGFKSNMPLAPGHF
T1 sequence (P23944 whole entry): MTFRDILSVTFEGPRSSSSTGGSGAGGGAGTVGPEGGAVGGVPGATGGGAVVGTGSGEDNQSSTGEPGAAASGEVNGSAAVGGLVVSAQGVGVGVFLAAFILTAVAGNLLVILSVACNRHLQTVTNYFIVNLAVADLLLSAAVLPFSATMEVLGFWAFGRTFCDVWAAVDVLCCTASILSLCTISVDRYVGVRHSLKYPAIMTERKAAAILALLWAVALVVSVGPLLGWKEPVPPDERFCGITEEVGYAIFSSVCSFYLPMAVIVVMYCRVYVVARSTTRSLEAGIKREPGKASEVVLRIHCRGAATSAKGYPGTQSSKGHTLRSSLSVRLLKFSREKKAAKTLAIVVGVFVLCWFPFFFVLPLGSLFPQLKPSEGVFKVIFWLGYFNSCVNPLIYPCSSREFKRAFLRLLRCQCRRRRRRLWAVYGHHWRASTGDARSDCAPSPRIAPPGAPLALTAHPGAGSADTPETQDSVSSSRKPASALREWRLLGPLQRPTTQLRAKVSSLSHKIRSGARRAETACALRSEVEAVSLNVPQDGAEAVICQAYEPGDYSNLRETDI
T1 sequence (P43140 whole entry): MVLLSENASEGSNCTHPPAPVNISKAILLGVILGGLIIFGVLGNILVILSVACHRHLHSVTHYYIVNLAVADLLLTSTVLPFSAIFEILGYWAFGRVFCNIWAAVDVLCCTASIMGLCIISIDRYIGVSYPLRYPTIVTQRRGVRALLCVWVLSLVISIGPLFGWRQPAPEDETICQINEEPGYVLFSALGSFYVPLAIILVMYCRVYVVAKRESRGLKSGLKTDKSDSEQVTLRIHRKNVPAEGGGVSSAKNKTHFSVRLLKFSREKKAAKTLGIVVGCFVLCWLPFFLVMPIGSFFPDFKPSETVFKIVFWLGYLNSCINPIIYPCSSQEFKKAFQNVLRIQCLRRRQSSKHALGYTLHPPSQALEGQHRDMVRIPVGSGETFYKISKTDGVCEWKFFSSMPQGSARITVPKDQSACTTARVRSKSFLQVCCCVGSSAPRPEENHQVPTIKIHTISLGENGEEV

[2] = molecular target: T2, Adrenergic receptor alpha-2 (Rattus norvegicus, UniProt P22086+P19328+P22909); test: Antagonistic activity against presynaptic alpha-2 adrenergic receptor in isolated rat vas deferens using xylazine as agonist; assay type: functional, tissue-based
T2 sequence (P22086 whole entry): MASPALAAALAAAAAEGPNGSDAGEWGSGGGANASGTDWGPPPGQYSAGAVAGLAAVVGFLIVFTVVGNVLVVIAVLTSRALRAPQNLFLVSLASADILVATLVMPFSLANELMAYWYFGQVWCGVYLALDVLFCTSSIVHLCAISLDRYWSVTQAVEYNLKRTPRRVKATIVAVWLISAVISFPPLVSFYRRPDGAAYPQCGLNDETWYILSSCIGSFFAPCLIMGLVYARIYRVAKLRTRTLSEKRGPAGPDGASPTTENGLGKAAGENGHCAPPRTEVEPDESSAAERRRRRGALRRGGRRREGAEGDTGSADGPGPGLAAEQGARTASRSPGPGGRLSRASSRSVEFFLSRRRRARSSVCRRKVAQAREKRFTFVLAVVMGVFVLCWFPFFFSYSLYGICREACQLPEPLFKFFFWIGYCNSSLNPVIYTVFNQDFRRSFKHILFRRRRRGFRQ
T2 sequence (P19328 whole entry): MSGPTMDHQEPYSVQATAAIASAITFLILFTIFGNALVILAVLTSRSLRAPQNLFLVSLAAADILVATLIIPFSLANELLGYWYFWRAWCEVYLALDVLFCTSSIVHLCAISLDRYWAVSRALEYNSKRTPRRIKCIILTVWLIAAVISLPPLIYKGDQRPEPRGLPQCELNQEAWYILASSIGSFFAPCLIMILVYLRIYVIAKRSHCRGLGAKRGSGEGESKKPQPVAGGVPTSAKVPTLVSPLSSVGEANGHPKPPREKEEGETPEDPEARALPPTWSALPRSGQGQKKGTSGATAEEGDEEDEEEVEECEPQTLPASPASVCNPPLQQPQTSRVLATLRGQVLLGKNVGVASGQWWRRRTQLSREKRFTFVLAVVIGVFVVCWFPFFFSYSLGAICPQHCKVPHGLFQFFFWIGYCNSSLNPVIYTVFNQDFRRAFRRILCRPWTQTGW
T2 sequence (P22909 whole entry): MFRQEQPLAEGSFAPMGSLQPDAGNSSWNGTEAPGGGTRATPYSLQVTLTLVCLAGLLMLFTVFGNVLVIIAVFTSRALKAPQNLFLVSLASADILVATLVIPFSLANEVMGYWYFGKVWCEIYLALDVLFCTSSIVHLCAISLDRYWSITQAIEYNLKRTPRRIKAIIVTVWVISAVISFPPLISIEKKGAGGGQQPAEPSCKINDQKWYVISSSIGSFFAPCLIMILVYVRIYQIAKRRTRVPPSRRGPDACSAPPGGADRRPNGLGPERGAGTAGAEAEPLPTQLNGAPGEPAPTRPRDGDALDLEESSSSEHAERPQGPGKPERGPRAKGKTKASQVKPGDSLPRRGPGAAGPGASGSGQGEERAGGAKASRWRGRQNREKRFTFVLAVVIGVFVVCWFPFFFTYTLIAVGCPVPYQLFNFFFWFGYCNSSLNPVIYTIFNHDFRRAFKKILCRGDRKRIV

[3] = molecular target: Adrenergic receptor alpha-2 (Cavia porcellus); test: Antagonistic activity against adrenergic alpha-2 receptor in longitudinal muscle strip of the guinea pig ileum using l-norepinephrine as agonist

Row | Structure (SMILES) | pA2 [1] | pA2 [2] | pA2 [3]
1 | CCOC(=O)[C@H]1[C@H]2C[C@H]3c4cc5c(cc4CCN3C[C@H]2CC[C@H]1O)OCO5 | 5.51 | – | –
2 | COC(=O)[C@@H]1C[C@@H]2CN3CCc4cc5c(cc4[C@@H]3C[C@@H]2C[C@@H]1O)OCO5 | 4.8 | – | –
3 | COC(=O)[C@H]1C[C@H]2CN3CCc4cc5c(cc4[C@@H]3C[C@@H]2C[C@@H]1O)OCO5 | 5.98 | – | –
4 | Oc1cc2c(cc1O)[C@@H]1C[C@@H]3C[C@H](O)CC[C@@H]3CN1CC2 | < 4 | 5.74 | –
5 | OC[C@@H]1[C@H]2C[C@H]3c4cc5c(cc4CCN3C[C@@H]2CC[C@H]1O)OCO5 | 5.25 | – | –
6 | COc1cc2c(cc1OC)[C@@H]1C[C@@H]3C[C@H](OC(C)=O)CC[C@@H]3CN1CC2 | 4.54 | 6.61 | 6.19
7 | N#C[C@@H]1C[C@@H]2CN3CCc4cc5c(cc4[C@@H]3C[C@@H]2C[C@@H]1O)OCO5 | < 4 | 6.1 | 6.67
8 | CC(=O)O[C@@H]1CC[C@@H]2CN3CCc4cc5c(cc4[C@@H]3C[C@@H]2C1)OCO5 | 4.55 | 7.3 | 8.21
9 | OC[C@@H]1C[C@@H]2CN3CCc4cc5c(cc4[C@@H]3C[C@@H]2C[C@@H]1O)OCO5 | < 4 | – | –
10 | COc1cc2c(cc1OC)[C@@H]1C[C@@H]3C[C@H](O)CC[C@@H]3CN1CC2 | < 4 | 6.31 | < 4
11 | CCOc1cc2c(cc1OCC)[C@@H]1C[C@@H]3C[C@H](O)CCC3CN1CC2 (stereo partly specified) | < 4 | 6.41 | –
